Results published in PubChem BioAssay (NCI).
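Abbreviation: GI50, concentration required for 50% inhibition of growth. TGI denotes the concentration required for complete inhibition of growth.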

Assays:
Test in all cases: growth of human tumour cells (NCI), 384-well format
UO-31 renal = test system: UO-31 renal
NCI-H322M lung = test system: NCI-H322M lung
IGROV1 ovarian = test system: IGROV1 ovarian
NCI-H226 lung = test system: NCI-H226 lung
SR leukemia = test system: SR leukemia
UACC-257 melanoma = test system: UACC-257 melanoma
SF-268 CNS = test system: SF-268 CNS
A498 renal = test system: A498 renal
SNB-75 CNS = test system: SNB-75 CNS
NCI/ADR-RES ovarian = test system: NCI/ADR-RES ovarian
NCI-H460 NSCLC = test system: NCI-H460 NSCLC
COLO 205 colon = test system: COLO 205 colon
HL-60(TB) leukemia = test system: HL-60(TB) leukemia
HCC-2998 colon = test system: HCC-2998 colon
MDA-MB-435 melanoma = test system: MDA-MB-435 melanoma
K-562 leukemia = test system: K-562 leukemia
UACC-62 melanoma = test system: UACC-62 melanoma
OVCAR-3 ovarian = test system: OVCAR-3 ovarian
MDA-MB-468 breast = test system: MDA-MB-468 breast
HT29 colon = test system: HT29 colon
EKVX NSCLC = test system: EKVX NSCLC
CAKI-1 renal = test system: CAKI-1 renal
HOP-92 NSCLC = test system: HOP-92 NSCLC
SF-295 CNS = test system: SF-295 CNS
MOLT-4 leukemia = test system: MOLT-4 leukemia
CCRF-CEM leukemia = test system: CCRF-CEM leukemia
OVCAR-8 ovarian = test system: OVCAR-8 ovarian
SK-MEL-28 melanoma = test system: SK-MEL-28 melanoma
OVCAR-5 ovarian = test system: OVCAR-5 ovarian

Structure (SMILES): Cc1nc(-c2cnc(NC(C)C)n(C)c2=O)ccc1Oc1ccnc(-c2cnn(C)c2)c1
- GI50 (UO-31 renal): 97.3 µM
- TGI (UO-31 renal): > 100 µM
- GI50 (NCI-H322M lung): 23.5 µM
- TGI (NCI-H322M lung): 73.4 µM
- GI50 (IGROV1 ovarian): 13.7 µM
- TGI (IGROV1 ovarian): 44.3 µM
- GI50 (NCI-H226 lung): 19 µM
- TGI (NCI-H226 lung): 90.7 µM
- GI50 (SR leukemia): 1.5 µM
- TGI (SR leukemia): 2.99 µM
- GI50 (UACC-257 melanoma): 17.2 µM
- TGI (UACC-257 melanoma): 57.1 µM
- GI50 (SF-268 CNS): 19.8 µM
- TGI (SF-268 CNS): 64.1 µM
- GI50 (A498 renal): 13.2 µM
- TGI (A498 renal): > 100 µM
- GI50 (SNB-75 CNS): 10.9 µM
- TGI (SNB-75 CNS): 26.8 µM
- GI50 (NCI/ADR-RES ovarian): 5.77 µM
- TGI (NCI/ADR-RES ovarian): 19.3 µM
- GI50 (NCI-H460 NSCLC): 15.4 µM
- TGI (NCI-H460 NSCLC): 37.4 µM
- GI50 (COLO 205 colon): 9.84 µM
- TGI (COLO 205 colon): 22.8 µM
- GI50 (HL-60(TB) leukemia): 2.63 µM
- TGI (HL-60(TB) leukemia): 6.27 µM
- GI50 (HCC-2998 colon): 14.2 µM
- TGI (HCC-2998 colon): 36.9 µM
- GI50 (MDA-MB-435 melanoma): 2.39 µM
- TGI (MDA-MB-435 melanoma): 5.7 µM
- GI50 (K-562 leukemia): 1.26 µM
- TGI (K-562 leukemia): 2.68 µM
- GI50 (UACC-62 melanoma): 6.42 µM
- TGI (UACC-62 melanoma): 24.6 µM
- GI50 (OVCAR-3 ovarian): 8.64 µM
- TGI (OVCAR-3 ovarian): 28 µM
- GI50 (MDA-MB-468 breast): 2.73 µM
- TGI (MDA-MB-468 breast): 6.33 µM
- GI50 (HT29 colon): 7.73 µM
- TGI (HT29 colon): 34.7 µM
- GI50 (EKVX NSCLC): 18.1 µM
- TGI (EKVX NSCLC): > 100 µM
- GI50 (CAKI-1 renal): 25.7 µM
- TGI (CAKI-1 renal): > 100 µM
- GI50 (HOP-92 NSCLC): 19.5 µM
- TGI (HOP-92 NSCLC): 68.6 µM
- GI50 (SF-295 CNS): 15.6 µM
- TGI (SF-295 CNS): 62.7 µM
- GI50 (MOLT-4 leukemia): 1.87 µM
- TGI (MOLT-4 leukemia): 3.56 µM
- GI50 (CCRF-CEM leukemia): 4.56 µM
- TGI (CCRF-CEM leukemia): 14.9 µM
- GI50 (OVCAR-8 ovarian): 14.6 µM
- TGI (OVCAR-8 ovarian): 28.4 µM
- GI50 (SK-MEL-28 melanoma): 14.5 µM
- TGI (SK-MEL-28 melanoma): 69.5 µM
- GI50 (OVCAR-5 ovarian): 17.2 µM
